Assay results reported in PMC12763877 (Journal of Experimental & Clinical Cancer Research : CR, 2025).

Legend:
[1] = test system: 4T1 orthotopic breast tumor vasculature; experiment: Tumor vascular normalization in breast cancer mouse model (immunofluorescence, lectin perfusion, HIF-1α IHC, H&E); type: in vivo, BALB/c mice
Procedure: The tumor tissues were then excised. […] All animals were raised in an SPF environment. […] We followed all the rules and regulations.
Paraffin-embedded mouse tumor tissue sections were deparaffinized, rehydrated, and fixed with 4% paraformaldehyde at room temperature for 20 min. After washing with PBS, the sections were permeabilized with 1% Triton X-100 (Solarbio, China) for 15 min at room temperature, followed by blocking with 5% bovine serum albumin (BSA) in PBS containing 0.1% Triton X-100 for 1 h at room temperature to reduce nonspecific binding. The sections were first incubated with primary antibodies against PECAM-1 (CD31) and α-smooth muscle actin (α-SMA), including Alexa Fluor 488-conjugated anti-CD31 antibody (clone SC-376764-AF488, Santa Cruz Biotechnology, […]) and rabbit anti-α-SMA antibody (catalog no. AF0048, Beyotime Biotechnology, China). After washing, the sections were further incubated overnight at 4 °C with primary antibodies against dsDNA and HSP60. The next day, the sections were incubated with Alexa Fluor 647-conjugated goat anti-rabbit IgG (H + L) secondary antibody (catalog no. A0468, Beyotime Biotechnology, China) for 1 h at room temperature in the dark. Nuclear staining was performed using DAPI (catalog no. C0060, Solarbio, China). Finally, all slides were mounted with antifade mounting medium and observed using a […] 5 confocal microscope (Leica Microsystems, Germany).
Immunohistochemical staining was performed on formalin-fixed, paraffin-embedded tissue sections. After deparaffinization and rehydration, antigen retrieval was conducted by heating the sections in citrate buffer (pH 6.0) at 95 °C for 12 min. Endogenous peroxidase activity was blocked by incubation with 3% hydrogen peroxide for 10 min at room temperature, followed by blocking of non-specific binding sites with 10% goat serum for 30 min at room temperature. The sections were then incubated overnight at 4 °C with a primary antibody against HIF-1α (rabbit anti-human, catalog no. 48085 T, Cell Signaling Technology, USA) diluted at 1:200. After washing, the sections were incubated with HRP-conjugated goat anti-rabbit IgG secondary antibody (catalog no. A0208, Beyotime Biotechnology, China) at a dilution of 1:500 for 30 min at room temperature. Color development was achieved using a DAB substrate kit, and the sections were counterstained with hematoxylin. After dehydration, clearing, and mounting with neutral resin, the stained sections were observed and imaged under an inverted microscope.
To quantitatively assess vascular maturation, we performed dual immunofluorescence staining for the endothelial cell marker CD31 and pericyte marker α-SMA in tumor tissues. […] In addition, vascular perfusion indicates their transmission function is crucial for the delivery of chemotherapeutic and […] agents. To evaluate the effect of candesartan on tumor vascular perfusion function, DyLight™649-labeled tomato lectin (40 mg/kg), which specifically labels perfused blood vessels, was injected into the mice via tail vein injection 1.5 h before sacrifice. Then, perform frozen sectioning of the tumor tissue, microvessels were labeled with CD31 by immunofluorescence, and the co-expression percentage of tomato lectin and CD31^+ was observed and calculated. As shown in Fig. 4C-D, only a small fraction of CD31^+ blood vessels in the control group were coated with tomato lectin, with a low percentage of CD31^+Lectin^+.

[2] = biological target: T1, APLNR (Homo sapiens, UniProt P35414); experiment: cAMP assay in APLNR-HEK293T cells; type: cell-based; design: expressed in transfected cells; host or cells: HEK293; conditions: forskolin 20 µM, Apelin-13 0.1 µM, compound 10^-4-100 µM
T1 sequence (P35414 1-380): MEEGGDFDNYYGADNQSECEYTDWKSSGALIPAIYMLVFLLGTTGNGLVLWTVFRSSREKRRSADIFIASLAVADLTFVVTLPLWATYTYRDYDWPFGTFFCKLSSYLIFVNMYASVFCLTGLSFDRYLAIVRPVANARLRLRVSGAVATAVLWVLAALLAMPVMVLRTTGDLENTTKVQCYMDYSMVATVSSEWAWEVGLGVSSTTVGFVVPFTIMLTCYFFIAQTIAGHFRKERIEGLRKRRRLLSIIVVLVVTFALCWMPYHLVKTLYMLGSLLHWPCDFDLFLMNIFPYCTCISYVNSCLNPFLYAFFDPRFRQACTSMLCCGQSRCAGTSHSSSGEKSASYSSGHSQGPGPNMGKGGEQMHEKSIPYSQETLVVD
Procedure: A suspension of APLNR-HEK293T cells was prepared and seeded into a 384-well OptiPlate™ 384 at a density of 1 × 10⁴ cells per well. The cells were cultured at 37℃ for 24 h. The culture medium was then removed, and 7.5 µL of serum-free medium containing 500 µM IBMX and the test compound was added to each well. The plate was incubated at 37℃ with 5% CO2 for 30 min. The concentration of cAMP was subsequently measured using the cAMP-Glo™ Assay Kit (Promega).
To characterize the molecular interactions between candesartan and APLNR, we performed molecular docking simulations using the APLNR crystal structure (PDB: 7SUS) as a template. […] In addition, previous studies have established that APLNR activation by its endogenous agonist Apelin-13 […] Gi protein signaling, thereby attenuating forskolin-induced cAMP accumulation. Then, using APLNR overexpression cell line (HEK293T-APLNR) and cAMP quantification assays to investigate the inhibitory activity of candesartan on APLNR.

[3] = test system: zebrafish retinal vasculature; experiment: Zebrafish hypoxia-induced retinal vascular abnormality model; type: in vivo, zebrafish (Danio rerio); conditions: CoCl2 5 mM + GS401 2.5 ug/ml; compounds at concentrations < LD50 (A-2 1 µM); imaged at 5 dpf
Procedure: Transgenic zebrafish Tg(flk: EGFP) were obtained from the China Zebrafish Resource Center and maintained at 28 ± 1 °C under a 14-hour light/10-hour dark cycle. […] Survival rates were recorded to calculate the median lethal concentration (LC₅₀). For the retinal angiogenesis assay, embryos at 1 day post fertilization (dpf) were transferred to E3 medium containing 5 mM CoCl₂·6 H₂O and 2.5 µg/mL GS4012 to induce hypoxia and abnormal vessel formation. At 3 dpf, test compounds were added and incubation continued until 5 dpf. Blank, model, and vehicle (≤ 0.1% DMSO) controls were included, with at least three replicates per group (n = 10–15 embryos). At 5 dpf, retinal vasculature was imaged using fluorescence microscopy and analyzed for branching number, vessel length, and density using ImageJ. Data are presented as mean ± standard deviation (SD) and analyzed using one-way ANOVA followed by Tukey’s post hoc test, with p < 0.05 considered statistically significant.
Furthermore, we established a hypoxia-induced vascular dysregulation model with CoCl2 (5mM) and a VEGF inductive agent GS401 (2.5 ug/ml) in zebrafish embryos to assess the capacity of candidate compounds to regulate vascular normalization. Following Zebrafish toxicity profiling, 8 candidate compounds were administered at optimized concentrations (< LD50) to treat the zebrafish vascular abnormality model separately. […]

Q: Which “Percentage of CD31+Lectin+ (vascular perfusion)” value ([1]; 10 mg/kg and 30 mg/kg, tomato lectin) does the source give for `CCOc1nc2cccc(C(=O)O)c2n1Cc1ccc(-c2ccccc2-c2nnn[nH]2)cc1` [Compound A-2, Candesartan] here?
A: significantly increased

Q: What about the “Coverage of α-SMA+ pericyte on CD31+ endothelial cell” value ([1]; 10 mg/kg and 30 mg/kg, vs vehicle) of the same compound?
A: significant increase

Q: And the “HIF-1α expression in tumor tissues” value ([1]; IHC)?
A: significant decline

Q: What about the “Tumor necrosis (H&E)” value ([1]; high-dose 30 mg/kg) of the same compound?
A: tendency towards increased necrosis

Q: What about the “Tumor necrosis (H&E)” value ([1]; low-dose 10 mg/kg) of the same compound?
A: reduced necrotic areas

Q: And the “cAMP accumulation (reversal of Apelin-13 effect)” value [2]?
A: dose-dependently restored cAMP accumulation

Q: And the “Effect on hypoxia-induced retinal vascular pathology (ectopic branching, vascular architecture)” value [3]?
A: markedly attenuated these pathological features
